Patent US20130302247A1, “SYNTHESIS OF FLUOROARACHIDONIC ACID AND METHODS OF USE THEREOF” (The United States of America, as represented by the …, priority 2012, published 2013)

Experiments:
[1] = Plasma kinetics of FAA during 5-min intravenous infusion in unanesthetized mice; type: in vivo, C57BL/6J male mice; conditions: 5-minute intravenous infusion; for plasma area under the curve: mice
Method: (§1) The plasma and brain kinetics of the purified [^19F]FAA were tested in unanesthetized adult C57BL/6J male mice. The study was conducted following the National Institutes of Health Guidelines for the Care and Use of Laboratory Animals (Publication no. 80-23) and was approved by the Animal Care and Use Committee of the Eunice Kennedy Shriver National Institute of Child Health and Human Development. Male C57BL/6J mice were obtained at the age of 2-3 months. The mice were maintained in an animal facility in which temperature, humidity, and light cycle were regulated with free access to water and a fixed diet (Rodent NIH-07) that contained (as fractional percent of total fatty acids), 30.6% saturated, 22.5% monounsaturated, […], 4.9% α-linolenic, 0.2% AA, 1.6% eicosapentaenoic, and 2.2% docosahexaenoic acid.
At 4-5 months of age, a mouse was anesthetized with […], and polyethylene catheters were inserted into the femoral artery and vein. The mouse was allowed to recover from surgery in an environment maintained at 25° C., with its hindquarters loosely wrapped and taped to a wooden block. During recovery, body temperature was maintained at 37° C. by means of a rectal probe and a heating element (Indicating Temperature Controller; Yellow Springs Instrument). […] Plasma samples were separated by centrifuging at 13,000 rpm for 1 min, and stored at −80° C. until they were analyzed. […]
Total lipids were extracted from plasma (7-10 μl) and from half brain (˜0.2 g) by the method of Folch et al (28). […] Each band was scraped into tubes containing di-17:0 PC for quantifying PL, CE, TG, EtnGpl, ChoGpl, PtdIns and PtdSer lipid fractions, or 17:0 heptadecaenoic acid to quantify brain UFAs. […]

[2] = Incorporation of [19F]FAA into brain lipids of unanesthetized mice (GC/MS, in vivo kinetic infusion model); parameters: species or system C57BL/6J male mice
Method: as §1
At 4-5 months of age, a mouse was anesthetized with […], and polyethylene catheters were inserted into the femoral artery and vein. The mouse was allowed to recover from surgery in an environment maintained at 25° C., with its hindquarters loosely wrapped and taped to a wooden block. During recovery, body temperature was maintained at 37° C. by means of a rectal probe and a heating element (Indicating Temperature Controller; Yellow Springs Instrument). After 3 h of recovery, the unanesthetized mouse was infused intravenously for 5 min with 130 μl HEPES buffer (pH 7.4) containing 50 mg/ml fatty acid-free bovine serum albumin (BSA, Sigma), or 0.1 mg or 0.5 mg 20-fluoroarachidonic acid (20-FAA) dissolved in HEPES-BSA at a rate of 0.0223 (1+e^−0.32t) ml/min (t in seconds), using a computer-controlled variable rate infusion pump (No. 22; Harvard Apparatus). During infusion, timed arterial blood samples (˜20 μl) were collected in polyethylene-heparin lithium fluoride-coated Beckman centrifuge tubes at 0, 0.25, 0.5, 1.0, 1.5, 3.0, and 4.0 min, and 150 μl was collected at 4.9 min. Plasma samples were separated by centrifuging at 13,000 rpm for 1 min, and stored at −80° C. until they were analyzed. At 5 min, the mouse was anesthetized with sodium pentobarbital (50 mg/kg, i.v.) and subjected to head-focused microwave irradiation (5.5 kW, 0.9 s, 75% power output; Cober Electronics) to stop brain fatty acid metabolism (27). The brain was excised, dissected sagittally and stored at −80° C. until analysis.
Total lipids were extracted from plasma (7-10 μl) and from half brain (˜0.2 g) by the method of Folch et al (28). Heptadecanoic acid (17:0) was added as an internal standard to plasma prior to extraction. Total lipid extracts were separated by thin layer chromatography (TLC) on silica gel plates (Silica Gel 60A TLC plates; Whatman) that were pre-washed with chloroform/methanol (2:1 v/v) and activated by heating at 100° C. Neutral lipid subclasses including phospholipids (PLs), unesterified fatty acids (UFAs), triglycerides (TGs) and cholesteryl esters (CEs) were separated using a mixture of heptane:diethyl ether:glacial acetic acid (60:40:3 by volume) (29), and authentic PL, cholesterol, UFA, TG and CE standards were run in separate lanes to identify the bands. Phospholipid classes (EtnGpl, ethanolamine glycerophospholipid; ChoGpl, choline glycerophospholipid; PtdIns, phosphatidylinositol; PtdSer, phosphatidylserine) were separated in chloroform:methanol:H2O:glacial acetic acid (60:50:4:1 by volume) (30) and identified with authentic standards in separate lanes. The plates were sprayed with 0.03% (w/v) 6-p-toluidine-2-naphthalene sulfonic acid (Acros) in 50 mM Tris-HCl buffer (pH 7.4), and the lipid bands were visualized under UV light. Each band was scraped into tubes containing di-17:0 PC for quantifying PL, CE, TG, EtnGpl, ChoGpl, PtdIns and PtdSer lipid fractions, or 17:0 heptadecaenoic acid to quantify brain UFAs. Toluene (0.2 ml) was added to each tube. The UFAs were extracted from the scraped silica using 2:1 chloroform/methanol and 1.5 ml of 0.1 M KCl, dried and derivitized as described below. […]

[3] = mouse, intravenously injected, from ref (2); cited from earlier work
[4] = mouse brain, 5-min i.v. infusion, mean±SD, n=3

Structure (SMILES)	FAA concentration in plasma over time ([1]; 0.3 or 1.6 nmol, FIG. 1)	plasma area under the curve ([1]; high dose (1.6 nmol)) [µM·h]	plasma area under the curve ([1]; low dose (0.3 nmol)) [µM·h]	FAA concentration within brain phospholipids (rank order) ([2]; both doses, end of 5-min infusion, FIG. 2-A)	FAA detected in brain unesterified fatty acid, triglyceride and cholesteryl ester fractions ([2]; end of 5-min infusion, mouse brain) [nmol/g]	incorporation coefficient k*, high versus low dose ([2]; mouse brain lipids, FIG. 3)	k* values, brain ChoGpl [2, 4] [ml/s/g × 10^4]	k* values, brain EtnGpl [2, 4] [ml/s/g × 10^4]	k* values, brain PtdIns [2, 4] [ml/s/g × 10^4]	k* values, brain PtdSer [2, 4] [ml/s/g × 10^4]	k* values, brain Total lipid [2, 4] [ml/s/g × 10^4]	distribution of FAA in each phospholipid fraction, percentage of FAA in total phospholipid (rank order) ([2]; mouse brain, FIG. 2-B, p<0.01)	Published k* values, brain ChoGpl [3] [ml/s/g × 10^4]	Published k* values, brain EtnGpl [3] [ml/s/g × 10^4]	Published k* values, brain PtdIns [3] [ml/s/g × 10^4]	Published k* values, brain PtdSer [3] [ml/s/g × 10^4]	Published k* values, brain Total lipid [3] [ml/s/g × 10^4]
O=C(O)CCC/C=C\C/C=C\C/C=C\C/C=C\CCCCCF [FAA, 20-Fluoroarachidonic acid]	increased over time in a dose-dependent manner	0.236 ± 0.0189	0.0297 ± 0.0217	highest in PtdIns and ChoGpl, followed by EtnGpl and PtdSer	< 0.01	lower for the high infusion dose than the low dose	6.8 ± 2.6	2.8 ± 0.4	8.6 ± 1.3	0.4 ± 0.1	15.0 ± 2.3	highest in ChoGlp, followed by PtdIns, EtnGlp and PtdSer	–	–	–	–	–
CCCCC/C=C\C/C=C\C/C=C\C/C=C\CCCC(=O)O [[1-^14C]AA]	–	–	–	–	–	–	–	–	–	–	–	–	5.9 ± 1.4	5.7 ± 1.0	6.8 ± 0.8	1.8 ± 0.5	22.6 ± 1.3
